Test results published in patent publication EP1206258B1, “COMPOSITIONS CONTAINING ESTERS FOR TREATING PARASITIC INFESTATIONS OF ORGANISMS” (priority 1999, dated 2001).

Experiments:
[1] = system: Acarus siro; assay: residual filter paper bioassay on Acarus siro (Table 2a)
Description: The effect of trans-cinnamic acid ethyl ester on the mite Acarus siro was investigated using a residual filter paper bioassay. Seven samples of 0.01g of mite culture was placed on 7, 90mm Whatman™ filter papers. Each paper was previously treated with 745µl of a solution containing trans-cinnamic acid ethyl ester at concentrations varying from 74.64µl to 7.64 x 10^-4 µl/petri dish respectively and allowed to dry for 15 minutes. The controls were treated in the same way except ethanol (HPLC grade) was used as this was sample dilutant. Percentage control was calculated as in W.S. Abbot, A Method of Computing the Effectiveness of an Insecticide, Journal of Economic Entomology (1925) 18, 265-267.

[2] = system: Acarus siro; assay: further residual filter paper bioassay on grain/flour mite Acarus siro (Table 2b); details: for % mortality: ethanol control 24.00
Description: A further study was carried out to investigate the effect of Ethyl cinnamate on the grain/flour mite Acarus siro using a residual filter paper bioassay. Mites from a colony grown at 25°C ± 85% RH were removed using a spatular and placed into a petri dish. 275 µ of the cinnamate was placed onto a filter paper in one well of a 6 well (17 ml) cell culture plate and likewise, 275 µ of DH2O was placed on another piece of 4 cm Whatman filter paper in a second well. Mixed instars (male + female) were added to each well. The actual number of instars was unknown in each case, since the test only sought to establish the presence of activity; measured in terms of cidal effect (knockdown). The duration of the test was 5 ± days. Both treatments were incubated at 25°C ± 85% RH and each well was checked 4 times daily. Small amounts of food mix of yeastea 20B and wheat germ in the ratio 3 : 1 were included on the filter paper in both treatments.
The treatment was later modified : 2, 10 cm Whatman filter papers were cut to ø of 3 cm and placed in the mite culture. After 10 minutes they were removed using forceps. The mites were then swept into each well respective of treatment. The cinnamate provided too glutenous (viscous) to be used undiluted. Therefore, it was dissolved using 10 fold dilutions in ethanol. Therefore 30 µ cinnamate : 270 µ ethanol to the extent of 10-4. The control was ethanol.
The above experiment was repeated.

[3] = system: Rhizopus arrhizus; assay: growth inhibition test on SAB agar, R. arrhizus; format: cell-based
Description: The antifungal activity of ethyl trans-cinnamate against a number of different fungi was investigated by means of in a simple growth inhibition test.
The following quantities of Ethyl trans-Cinnamate were added to Sabourand Dextrose agar (SAB); 50 ml L^-1, 4ml L^-1, 2ml L^-1, 1ml L^-1, 400 µl L^-1, 200 µl L^-1 and 40 µl L^-1. […] These were then autoclaved and poured into standard Petri dishes. […] Duplicate plates of each concentration, plus control plates containing only SAB Agar, where then separately inoculated with, four different species of fungi, these were Aspergillus nidulans, Penicillium digitatum, Rhizopus arrhizus and Fusarium culmorum. Inoculation was carried out using a single stab at the centre of each Petri dish. The plates were then incubated at 30°C for 6 days and daily measurements of mycobial growth where taken every 24 hours.

[4] = system: Mouse; details: Oral, VPITAR 33(5)48,74; cited from earlier work
[5] = system: human volunteers; details: 24 hour closed-patch test, 25 human volunteers (Kligman 1973); cited from earlier work

SMILES: CCOC(=O)/C=C/c1ccccc1 [trans-cinnamic acid ethyl ester]
- percentage control figure ([1]; 7.64µl/petri dish): 100%
- Mean Percentage Mortality Over Control ([1]; Concentration (µl) 3.20): 95.57
- Mean Percentage Mortality Over Control ([1]; Concentration (µl) 3.20 x 10^1): 100.00
- Mean Percentage Mortality Over Control ([1]; Concentration (µl) 3.20 x 10^-1): 97.74
- Mean Percentage Mortality Over Control ([1]; Concentration (µl) 3.20 x 10^-2): 69.51
- Mean Percentage Mortality Over Control ([1]; Concentration (µl) 3.20 x 10^-3): 32.95
- Mean Percentage Mortality Over Control ([1]; Concentration (µl) 3.20 x 10^-4): 6.33
- % mortality ([2]; Concentration 10-1 (dilution in ethanol)): 100.00%
- % mortality ([2]; Concentration 10-2 (dilution in ethanol)): 100.00%
- % mortality ([2]; Concentration 10-3 (dilution in ethanol)): 98.40%
- % mortality ([2]; Concentration 10-4 (dilution in ethanol)): 86.00%
- time to 100% mortality ([2]; undiluted dose, approximately): less than 15 minutes
- Level of Radial Growth (mm) of R. arrhizus ([3]; 1ml L^-1, Day 1): 8.5 mm
- Level of Radial Growth (mm) of R. arrhizus ([3]; 1ml L^-1, Day 2): 45.0 mm
- Level of Radial Growth (mm) of R. arrhizus ([3]; 1ml L^-1, Day 3): 45.0 mm
- Level of Radial Growth (mm) of R. arrhizus ([3]; 1ml L^-1, Day 4): 45.0 mm
- Level of Radial Growth (mm) of R. arrhizus ([3]; 1ml L^-1, Day 5): 45.0 mm
- Level of Radial Growth (mm) of R. arrhizus ([3]; 1ml L^-1, Day 6): 45.0 mm
- Level of Radial Growth (mm) of R. arrhizus ([3]; 2ml L^-1, Day 1): 1. mm
- Level of Radial Growth (mm) of R. arrhizus ([3]; 2ml L^-1, Day 2): 45.0 mm
- Level of Radial Growth (mm) of R. arrhizus ([3]; 2ml L^-1, Day 3): 45.0 mm
- Level of Radial Growth (mm) of R. arrhizus ([3]; 2ml L^-1, Day 4): 45.0 mm
- Level of Radial Growth (mm) of R. arrhizus ([3]; 2ml L^-1, Day 5): 45.0 mm
- Level of Radial Growth (mm) of R. arrhizus ([3]; 2ml L^-1, Day 6): 45.0 mm
- Level of Radial Growth (mm) of R. arrhizus ([3]; 4ml L^-1, Day 1): 0 mm
- Level of Radial Growth (mm) of R. arrhizus ([3]; 4ml L^-1, Day 2): 23.5 mm
- Level of Radial Growth (mm) of R. arrhizus ([3]; 4ml L^-1, Day 3): 45.0 mm
- Level of Radial Growth (mm) of R. arrhizus ([3]; 4ml L^-1, Day 4): 45.0 mm
- Level of Radial Growth (mm) of R. arrhizus ([3]; 4ml L^-1, Day 5): 45.0 mm
- Level of Radial Growth (mm) of R. arrhizus ([3]; 4ml L^-1, Day 6): 45.0 mm
- Level of Radial Growth (mm) of R. arrhizus ([3]; 40µl L^-1, Day 1): 26.0 mm
- Level of Radial Growth (mm) of R. arrhizus ([3]; 40µl L^-1, Day 2): 45.0 mm
- Level of Radial Growth (mm) of R. arrhizus ([3]; 40µl L^-1, Day 3): 45.0 mm
- Level of Radial Growth (mm) of R. arrhizus ([3]; 40µl L^-1, Day 4): 45.0 mm
- Level of Radial Growth (mm) of R. arrhizus ([3]; 40µl L^-1, Day 5): 45.0 mm
- Level of Radial Growth (mm) of R. arrhizus ([3]; 40µl L^-1, Day 6): 45.0 mm
- duration of complete inhibition of growth ([3]; 50ml L-^1 and higher doses, further experiments, data not shown): at least 8 days
- inhibition of growth ([3]; 50ml L-^1 level): complete inhibition of growth
- Level of Radial Growth (mm) of R. arrhizus ([3]; 50 ml L^-1, Day 1): 0 mm
- Level of Radial Growth (mm) of R. arrhizus ([3]; 50 ml L^-1, Day 2): 0 mm
- Level of Radial Growth (mm) of R. arrhizus ([3]; 50 ml L^-1, Day 3): 0 mm
- Level of Radial Growth (mm) of R. arrhizus ([3]; 50 ml L^-1, Day 4): 0 mm
- Level of Radial Growth (mm) of R. arrhizus ([3]; 50 ml L^-1, Day 5): 0 mm
- Level of Radial Growth (mm) of R. arrhizus ([3]; 50 ml L^-1, Day 6): 0 mm
- Level of Radial Growth (mm) of R. arrhizus ([3]; 200µl L^-1, Day 1): 18.0 mm
- Level of Radial Growth (mm) of R. arrhizus ([3]; 200µl L^-1, Day 2): 45.0 mm
- Level of Radial Growth (mm) of R. arrhizus ([3]; 200µl L^-1, Day 3): 45.0 mm
- Level of Radial Growth (mm) of R. arrhizus ([3]; 200µl L^-1, Day 4): 45.0 mm
- Level of Radial Growth (mm) of R. arrhizus ([3]; 200µl L^-1, Day 5): 45.0 mm
- Level of Radial Growth (mm) of R. arrhizus ([3]; 200µl L^-1, Day 6): 45.0 mm
- Level of Radial Growth (mm) of R. arrhizus ([3]; 400µl L^-1, Day 1): 14.5 mm
- Level of Radial Growth (mm) of R. arrhizus ([3]; 400µl L^-1, Day 2): 45.0 mm
- Level of Radial Growth (mm) of R. arrhizus ([3]; 400µl L^-1, Day 3): 45.0 mm
- Level of Radial Growth (mm) of R. arrhizus ([3]; 400µl L^-1, Day 4): 45.0 mm
- Level of Radial Growth (mm) of R. arrhizus ([3]; 400µl L^-1, Day 5): 45.0 mm
- Level of Radial Growth (mm) of R. arrhizus ([3]; 400µl L^-1, Day 6): 45.0 mm
- LDSO [4]: 4000 mg/kg
- sensitization [5]: no sensitization
